Reference: US11905264B1, “N′-(2-(5-(4-chlorophenyl)-1,3,4-oxadiazol-2-ylthio)acetoxy)-4-nitrobenzimidamide as an antimicrobial compound” (KING FAISAL UNIVERSITY, priority 2023, dated 2024)

Tests used:
Type in all cases: cell-based
[1] = test system: Aspergillus flavus; assay: Agar plate disc-diffusion, antifungal inhibition zone; conditions: Sabouraud's dextrose agar, 72 hours
Procedure: (§1) The agar plate disc-diffusion method was applied. […] The discs were then placed onto the surface of agar plates (nutrient agar for bacteria and Sabouraud's dextrose agar for fungi) seeded with the test organism. Each plate contained 15 mL of the agar medium, previously seeded with 0.2 mL of the broth culture of each organism pregrown for 18 hours. The plates were incubated at 37° C. for 48 hours and 72 hours for fungi. The inhibition zones were measured in mm. Discs impregnated with DMSO were used as a control, and their inhibition zone was subtracted from the tested compound's actual inhibition zone.

[2] = test system: Chrysosporium keratinophilum; assay: as above; conditions: Sabouraud's dextrose agar, 72 hours
Procedure: as §1

[3] = test system: Escherichia coli; assay: Agar plate disc-diffusion, antibacterial inhibition zone; conditions: Gram negative, nutrient agar, 37° C.
Procedure: as §1

[4] = test system: Pseudomonas aeruginosa; assay: as above; conditions: Gram negative, nutrient agar, 37° C.
Procedure: as §1

[5] = test system: Staphylococcus aureus; assay: as above; conditions: Gram positive, nutrient agar, 37° C.
Procedure: as §1

[6] = test system: Bacillus cereus; assay: as above; conditions: Gram positive, nutrient agar, 37° C.
Procedure: as §1

[7] = A = concentration of comp. = 10,000 μL
[8] = B = concentration of comp. = 30,000 μL
[9] = C = concentration of comp. = 50,000 μL

Compound: N/C(=N\OC(=O)CSc1nnc(-c2ccc(Cl)cc2)o1)c1ccc([N+](=O)[O-])cc1 [Compound 3, N′-(2-(5-(4-chlorophenyl)-1,3,4-oxadiazol-2-ylthio)acetoxy)-4-nitrobenzimidamide]
- inhibition zone, Aspergillus flavus, A [1, 7]: 23 mm
- inhibition zone, Aspergillus flavus, B [1, 8]: 27 mm
- inhibition zone, Aspergillus flavus, C [1, 9]: 39 mm
- inhibition zone, Chrysosporium keratinophilum, A ([2]; A =): 26 mm
- inhibition zone, Chrysosporium keratinophilum, B [2, 8]: 28 mm
- inhibition zone, Chrysosporium keratinophilum, C [2, 9]: 41 mm
- inhibition zone, Escherichia coli, A [3, 7]: 27 mm
- inhibition zone, Escherichia coli, B [3, 8]: 31 mm
- inhibition zone, Escherichia coli, C [3, 9]: 50 mm
- inhibition zone, Pseudomonas aeruginosa, A [4, 7]: 22 mm
- inhibition zone, Pseudomonas aeruginosa, B [4, 8]: 26 mm
- inhibition zone, Pseudomonas aeruginosa, C [4, 9]: 40 mm
- inhibition zone, Staphylococcus aureus, A [5, 7]: 17 mm
- inhibition zone, Staphylococcus aureus, B [5, 8]: 20 mm
- inhibition zone, Staphylococcus aureus, C [5, 9]: 37 mm
- inhibition zone, Bacillus Cereus, A [6, 7]: 27 mm
- inhibition zone, Bacillus Cereus, B [6, 8]: 29 mm
- inhibition zone, Bacillus Cereus, C [6, 9]: 40 mm
